Consider twelve compounds from the Kinase Knowledgebase extract (Sharma et al. 2016).

In the experiment the target is MAPK14 (human) (UniProt Q16539). The experiment in a line: Inhibition of MAPK14 Kinase Activity.
MAPK14 (human), sequence (Q16539 whole entry, looked up): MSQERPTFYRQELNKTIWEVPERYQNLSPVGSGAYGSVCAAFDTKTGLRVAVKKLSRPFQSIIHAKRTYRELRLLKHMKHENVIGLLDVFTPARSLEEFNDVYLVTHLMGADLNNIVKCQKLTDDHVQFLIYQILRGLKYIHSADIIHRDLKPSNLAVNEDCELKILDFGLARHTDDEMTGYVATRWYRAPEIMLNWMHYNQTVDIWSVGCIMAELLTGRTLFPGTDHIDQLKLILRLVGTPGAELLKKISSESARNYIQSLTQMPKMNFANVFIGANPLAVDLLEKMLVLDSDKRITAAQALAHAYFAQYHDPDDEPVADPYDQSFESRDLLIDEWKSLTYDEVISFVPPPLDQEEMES
Turning to `CC(C)n1c(-c2cccc(C(N)=O)c2)nc(OCc2ccc(F)cc2F)c(Cl)c1=O`, the IC50 turned out to be 1020 nM and the Ki turned out to be 557 nM.

As for `CC(C)n1c(N2CC[C@@H](NC(=O)CO)C2)nc(OCc2ccc(F)cc2F)c(Cl)c1=O`, the half-maximal inhibitory concentration (IC50) was 372 nM and the Ki amounted to 238 nM.

Regarding `CC(C)n1c(NCC(=O)N2CCCC2)nc(OCc2ccc(F)cc2F)c(Br)c1=O`, the IC50 came to 215 nM and the Ki was 102 nM.

`CC(C)n1c(CCCC(=O)O)nc(OCc2ccc(F)cc2F)c(Cl)c1=O` registered an IC50 of 497 nM and an inhibition constant Ki of 247 nM.

Consider `CC(C)n1c(CNS(C)(=O)=O)nc(OCc2ccc(F)cc2F)c(Br)c1=O`, for which the IC50 worked out at 59.4 nM and the inhibition constant (Ki) was determined as 28.5 nM.

For `CC(C)n1c(N2CCC(N)C2)nc(OCc2ccc(F)cc2F)c(Br)c1=O` (centres undefined), the half-maximal inhibitory concentration (IC50) was 150 nM and the inhibition constant (Ki) was 62.2 nM.

Regarding `CC(C)n1c(NCC(N)=O)nc(OCc2ccc(F)cc2F)c(Cl)c1=O`, the IC50 amounted to 102 nM and the inhibitory constant (Ki) came out at 48 nM.

For the compound `CC(C)n1c(N[C@@H](C)C(N)=O)nc(OCc2ccc(F)cc2F)c(Br)c1=O`, the IC50 was 4.6 nM and the Ki was determined as 1.73 nM.

Take `CC(C)n1c(NCCNC(N)=O)nc(OCc2ccc(F)cc2F)c(Br)c1=O`: the IC50 came out at 14.2 nM and the inhibition constant (Ki) was determined as 7.04 nM.

Consider `CCN[C@@H]1CCN(c2nc(OCc3ccc(F)cc3F)c(Br)c(=O)n2C(C)C)C1`, for which the concentration for half-maximal inhibition (IC50) was determined as 131 nM and the Ki turned out to be 71.6 nM.

`CC(C)n1c(OCCCCO)nc(OCc2ccc(F)cc2F)c(Cl)c1=O` displayed an IC50 of 139 nM and an inhibition constant (Ki) of 68.5 nM.

`C=CCc1nc(OCc2ccc(F)cc2F)c(Cl)c(=O)n1C(C)C`: the IC50 stood at 256 nM and the Ki was 133 nM.

The term IC50 denotes the midpoint of a concentration-inhibition curve. A high value points to weaker potency in that assay. In general, Ki refers to the dissociation constant of the complex between target and ligand, obtained from inhibition or displacement.
